# Measured values published in patent US11969730B2, “Apparatus for sensor-based examination of biological cells” (FRAUNHOFER-GESELLSCHAFT ZUR FÖRDERUNG DER ANGEWANDTEN …, priority 2017, dated 2024).
# Columns and labels:
# HaCaT cells [1] = experiment: impedimetric toxicity study (cytotoxicity assay) with confluent HaCaT cells on electrode array; assay type: cell-based, human; conditions: 32 kHz; increasing concentrations; applied 24 h after thawing or seeding; 37° C.; cryopreserved (7 days, −80° C.) and newly seeded cells
# Procedure: IZI at 32 kHz for confluent HaCaT cells that were incubated (cytotoxicity assay) at the time t=0 h with increasing concentrations of CdCl2.
# The cell density was identical in both cases. Increasing concentrations of the heavy metal salt CdCl2 served as the chemical model toxin. The assay was carried out 24 h after thawing, respectively seeding.
# The cell response to the addition of CdCl2 is documented with reference to the time profile of the normed impedance at a measurement frequency of 32 kHz. […] The time developments, also highly characteristic of the impedance after the addition of CdCl2 to the confluent cell layers for every concentration of CdCl2 for the cryopreserved cells are indistinguishably similar to those of the newly seeded cells.
# HaCaT cells [2] = experiment: impedimetric readout of adhesion of HaCaT cells to the electrode surface after cryopreservation and thawing; assay type: cell-based, human; conditions: 10% by volume in the freezing medium; cryopreservation over 5 weeks at −80° C.; capacitance at 40 kHz
# Procedure: The cell density on the sensor surface is 450,000 cells/cm^2 (T=37° C.) in both cases. The decrease in the capacitance reflects the increasing electrode coverage.
# To check the viability state of the frozen cells and then thawed again, the kinetics of the adhesion of human skin cells (keratinocytes, HaCaT cells) to the electrode surface (of gold) after a cryopreservation of more than five weeks at −80° C. were tracked directly after thawing (revitalization) with time resolution via an impedimetric readout (see FIG. 2A). The time development of the capacitance C of the total system at a measurement frequency of 40 kHz is in linear dependence on the occupation of the electrode with adherent cells and thus reflects the progressing process of the cell adhesion.
# The culture medium is modeled on the freezing medium after revitalizing the cells in the chemical composition. Variable DMSO contents were selected to freeze the cells to be able to directly optimize the freezing medium for the respective cell line.
Structure (SMILES),time profile of the normed impedance after addition of CdCl2 (HaCaT cells [1]),effect on the cell viability after thawing (HaCaT cells [2])
[Cl][Cd][Cl] [CdCl2],decreases in dependence on the dosage,
C[S+](C)[O-] [DMSO],,no negative effect
